According to patent US6596734B1, “Tetrahydroisoquinoline compounds for use as β3-adrenoreceptor agonists” (Molecular Design International, Inc., priority 2001, dated 2003):
Where a name gives a salt, the structure may show the parent alone.

Legend:
human β1-adrenoreceptor = target: T1, human β1-adrenoreceptor (Homo sapiens, UniProt P08588); assay: cAMP radioimmunoassay in CHO cells expressing human β1-adrenoreceptor; assay type: cell-based; details: maximal response relative to standard reference agonist (isoproterenol = 100%), na = not active, read-out: h-β1 cAMP Max %
T1 construct: expressed in transfected cells; host or cells: CHO cells
Protocol: (§1) Chinese Hamster Ovary (CHO) cells expressing either human β1-, β2-, or β3-adrenoreceptor subtypes were used. Varying concentrations of each compound were added to the incubated cells and the cyclic AMP (cAMP) generated within the cells was extracted, and determined using a radioimmunoassay. Effective concentration-50 (EC-50) values were measured as the concentration (in nanomolar) of each drug that gave 50% of its maximum cAMP response. The maximal response (Max %) of each tested drug is expressed as a ratio of the drug response to that of a standard reference agonist (e.g., isoproterenol (Max %=100%)). If a compound has no activity for increasing cAMP at the highest concentration used, it is designated as “not active” or “na” in Table I below, which summarizes the testing results. See Konkar et al., Journal of Pharmacology and Experimental Therapeutics 291:875-883 (1999).

human β3-adrenoreceptor = target: T2, human β3-adrenoreceptor (Homo sapiens, UniProt P13945); assay: cAMP radioimmunoassay in CHO cells expressing human β3-adrenoreceptor; assay type: cell-based; details: for EC50: concentration giving 50% of the drug's maximum cAMP response, na = not active at highest concentration used, read-out: h-β3 cAMP EC50; for Emax: maximal response relative to standard reference agonist (isoproterenol = 100%), na = not active, read-out: h-β3 cAMP Max %
T2 construct: expressed in transfected cells; host or cells: CHO cells
Protocol: as §1

human β2-adrenoreceptor = target: T3, human β2-adrenoreceptor (Homo sapiens, UniProt P07550); assay: cAMP radioimmunoassay in CHO cells expressing human β2-adrenoreceptor; assay type: cell-based; details: maximal response relative to standard reference agonist (isoproterenol = 100%), na = not active, read-out: h-β2 cAMP Max %
T3 construct: expressed in transfected cells; host or cells: CHO cells
Protocol: as §1

T1 sequence (P08588 whole entry): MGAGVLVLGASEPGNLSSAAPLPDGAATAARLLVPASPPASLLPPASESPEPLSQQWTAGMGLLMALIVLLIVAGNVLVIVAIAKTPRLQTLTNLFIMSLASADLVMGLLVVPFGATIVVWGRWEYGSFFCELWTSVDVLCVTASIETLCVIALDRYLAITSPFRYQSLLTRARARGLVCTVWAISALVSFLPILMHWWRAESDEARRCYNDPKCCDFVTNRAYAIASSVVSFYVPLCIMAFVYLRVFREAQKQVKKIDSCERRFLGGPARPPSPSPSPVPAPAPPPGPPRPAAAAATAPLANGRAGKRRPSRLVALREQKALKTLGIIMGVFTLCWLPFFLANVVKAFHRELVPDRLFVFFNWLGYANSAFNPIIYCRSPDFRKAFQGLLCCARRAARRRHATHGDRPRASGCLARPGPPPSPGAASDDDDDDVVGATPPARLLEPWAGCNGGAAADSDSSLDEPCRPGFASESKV
T2 sequence (P13945 whole entry): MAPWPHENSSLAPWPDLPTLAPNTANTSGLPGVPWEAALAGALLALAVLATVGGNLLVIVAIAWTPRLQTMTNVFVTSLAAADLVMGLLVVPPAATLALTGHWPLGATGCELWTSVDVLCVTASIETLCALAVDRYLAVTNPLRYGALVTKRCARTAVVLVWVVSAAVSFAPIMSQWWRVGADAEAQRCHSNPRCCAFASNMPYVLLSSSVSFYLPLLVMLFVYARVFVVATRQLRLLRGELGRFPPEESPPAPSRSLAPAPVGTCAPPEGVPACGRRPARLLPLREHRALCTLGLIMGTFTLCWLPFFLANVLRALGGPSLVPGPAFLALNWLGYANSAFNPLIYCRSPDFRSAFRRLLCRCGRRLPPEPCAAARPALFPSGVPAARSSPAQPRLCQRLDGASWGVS
T3 sequence (P07550 whole entry): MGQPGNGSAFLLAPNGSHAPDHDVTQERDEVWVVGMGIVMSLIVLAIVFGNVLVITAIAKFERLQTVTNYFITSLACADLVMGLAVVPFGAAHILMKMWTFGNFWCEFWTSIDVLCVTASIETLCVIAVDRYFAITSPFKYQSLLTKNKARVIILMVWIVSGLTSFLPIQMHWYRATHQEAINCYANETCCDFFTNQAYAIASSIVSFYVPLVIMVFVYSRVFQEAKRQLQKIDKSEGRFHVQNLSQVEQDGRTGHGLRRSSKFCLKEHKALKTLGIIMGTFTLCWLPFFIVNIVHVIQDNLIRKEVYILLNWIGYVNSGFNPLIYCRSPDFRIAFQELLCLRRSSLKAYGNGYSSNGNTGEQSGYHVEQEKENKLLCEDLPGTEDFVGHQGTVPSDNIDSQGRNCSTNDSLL

An Emax (human β1-adrenoreceptor) of 5%, an EC50 (human β3-adrenoreceptor) of 3 nM and an Emax (human β3-adrenoreceptor) of 98% were found for COc1c(I)cc(CC2NCCc3cc(O)c(NS(C)(=O)=O)cc32)cc1I (centres unmarked) in this work. For the same compound, the Emax (human β2-adrenoreceptor) was 5%.
An Emax (human β1-adrenoreceptor) of 16.2%, an Emax (human β3-adrenoreceptor) of 39.3% and an Emax (human β2-adrenoreceptor) of 24.1% were found for COc1c(Br)cc(CC2c3cc(NS(C)(=O)=O)c(O)cc3CCN2C)cc1Br (centres unmarked) in this work.
An Emax (human β3-adrenoreceptor) of 24% was found for COc1ccc(CC2NCCc3cc(O)c(NS(C)(=O)=O)cc32)cc1 (centres unmarked) in this work.
An Emax (human β1-adrenoreceptor) of 10.2%, an EC50 (human β3-adrenoreceptor) of 118 nM and an Emax (human β3-adrenoreceptor) of 76.9% were found for COc1ccc(CC2NCCc3cc(O)c(NS(C)(=O)=O)cc32)cc1OC (centres unmarked) in this work. For the same compound, the Emax (human β2-adrenoreceptor) was 15.4%.
An EC50 (human β3-adrenoreceptor) of 9.91 nM and an Emax (human β3-adrenoreceptor) of 92% were found for CS(=O)(=O)Nc1cc2c(cc1O)CCNC2Cc1ccc(Cl)c(Cl)c1 (centres unmarked) in this work.
An Emax (human β1-adrenoreceptor) of 12.6%, an Emax (human β3-adrenoreceptor) of 2.24% and an Emax (human β2-adrenoreceptor) of 10.8% were found for CS(=O)(=O)Nc1cc2c(cc1N)CCNC2Cc1ccc(Cl)c(Cl)c1 (centres unmarked) in this work.
An EC50 (human β3-adrenoreceptor) of 24.4 nM and an Emax (human β3-adrenoreceptor) of 78.3% were found for CS(=O)(=O)Nc1cc2c(cc1O)CCNC2Cc1ccc(F)c(F)c1 (centres unmarked) in this work.
An EC50 (human β3-adrenoreceptor) of 38.8 nM and an Emax (human β3-adrenoreceptor) of 66.6% were found for CS(=O)(=O)Nc1cc2c(cc1O)CCNC2Cc1cc(F)cc(F)c1 (centres unmarked) in this work.
An Emax (human β1-adrenoreceptor) of 8.4%, an EC50 (human β3-adrenoreceptor) of 1.51 nM and an Emax (human β3-adrenoreceptor) of 102% were found for CCS(=O)(=O)Nc1cc2c(cc1O)CCNC2Cc1cc(Br)c(OC)c(Br)c1 (centres unmarked) in this work.
An Emax (human β1-adrenoreceptor) of 13.1%, an EC50 (human β3-adrenoreceptor) of 35.3 nM and an Emax (human β3-adrenoreceptor) of 88.2% were found for COc1c(Br)cc(CC2NCCc3cc(O)c(NS(=O)(=O)c4ccccc4)cc32)cc1Br (centres unmarked) in this work. It also gave an Emax (human β2-adrenoreceptor) of 21.4%.
An Emax (human β1-adrenoreceptor) of 8.6%, an EC50 (human β3-adrenoreceptor) of 5.22 nM and an Emax (human β3-adrenoreceptor) of 90.4% were found for COc1c(Br)cc(CC2NCCc3cc(O)c(NS(=O)(=O)c4ccc(F)cc4)cc32)cc1Br (centres unmarked) in this work. The Emax (human β2-adrenoreceptor) was 13.5%.
An Emax (human β1-adrenoreceptor) of 12.1%, an Emax (human β3-adrenoreceptor) of 8.7% and an Emax (human β2-adrenoreceptor) of 5.8% were found for COc1c(Br)cc(CC2NCCc3cc(O)c(N(S(=O)(=O)c4ccc(F)cc4)S(=O)(=O)c4ccc(F)cc4)cc32)cc1Br (centres unmarked) in this work.
An Emax (human β1-adrenoreceptor) of 18.1%, an EC50 (human β3-adrenoreceptor) of 8.46 nM and an Emax (human β3-adrenoreceptor) of 97.6% were found for COc1c(Br)cc(CC2NCCc3cc(O)c(NS(=O)(=O)c4ccc(C)cc4)cc32)cc1Br (centres unmarked) in this work. The Emax (human β2-adrenoreceptor) was 8%.
An EC50 (human β3-adrenoreceptor) of 8.09 nM and an Emax (human β3-adrenoreceptor) of 88.3% were found for COc1ccc(S(=O)(=O)Nc2cc3c(cc2O)CCNC3Cc2cc(Br)c(OC)c(Br)c2)cc1 (centres unmarked) in this work.
An EC50 (human β3-adrenoreceptor) of 80.3 nM and an Emax (human β3-adrenoreceptor) of 65.7% were found for COc1c(Br)cc(CC2NCCc3cc(O)c(NS(=O)(=O)c4ccc(OC(F)(F)F)cc4)cc32)cc1Br (centres unmarked) in this work.
An Emax (human β1-adrenoreceptor) of 13%, an EC50 (human β3-adrenoreceptor) of 29.2 nM and an Emax (human β3-adrenoreceptor) of 83.3% were found for COc1c(Br)cc(CC2NCCc3cc(O)c(NS(=O)(=O)c4ccc(C(F)(F)F)cc4)cc32)cc1Br (centres unmarked) in this work. The Emax (human β2-adrenoreceptor) was 16.6%.
An EC50 (human β3-adrenoreceptor) of 20.9 nM and an Emax (human β3-adrenoreceptor) of 92.2% were found for COc1c(Br)cc(CC2NCCc3cc(O)c(NS(=O)(=O)Cc4ccccc4)cc32)cc1Br (centres unmarked) in this work.
An EC50 (human β3-adrenoreceptor) of 23.1 nM and an Emax (human β3-adrenoreceptor) of 96.6% were found for COc1c(Br)cc(CC2NCCc3cc(O)c(NS(=O)(=O)/C=C/c4ccccc4)cc32)cc1Br (centres unmarked) in this work.
An Emax (human β1-adrenoreceptor) of 5%, an EC50 (human β3-adrenoreceptor) of 2.9 nM and an Emax (human β3-adrenoreceptor) of 91% were found for COc1c(I)cc(CC2NCCc3cc(O)c(NS(=O)(=O)c4ccc(C)cc4)cc32)cc1I (centres unmarked) in this work. It also gave an Emax (human β2-adrenoreceptor) of 8%.
An Emax (human β1-adrenoreceptor) of 11%, an Emax (human β3-adrenoreceptor) of 8.7% and an Emax (human β2-adrenoreceptor) of 17.2% were found for CCOC(=O)Nc1cc2c(cc1NS(C)(=O)=O)CCNC2Cc1cc(Br)c(OC)c(Br)c1 (centres unmarked) in this work.
In the case of COc1ccc(S(=O)(=O)Nc2cc3c(cc2O)CCNC3Cc2cc(Br)c(OC)c(Br)c2)cc1 (centres unmarked) (as salt: hydrochloride) [Example 4, N-[1-(3,5-dibromo-4-methoxy-benzyl)-6-hydroxy-1,2,3,4-tetrahydro-isoquinolin-7-yl]-4-methoxy-benzenesulfonamide hydrochloride], the melting point is reported as 226 to 228 °C (dec.).
